Values of other authors as cited in patent US20060252804A1, “Flupirtin injectable galenic form” (AWD.pharma GMBH &Co. KG, priority 2003, published 2006).

Conditions: in aqueous solutions and in most physiologically tolerated organic solvents

For `CCOC(=O)Nc1ccc(NCc2ccc(F)cc2)nc1N` [flupirtine, 2-amino-3-carbethoxyamino-6-(4-fluorobenzylamino)pyridine], which solubility is on record?
The solubility was “scarcely soluble”.
